Data: paper PMC8003796, “Identification of Anti-Severe Acute Respiratory Syndrome-Related Coronavirus 2 (SARS-CoV-2) Oxysterol Derivatives In Vitro” (International Journal of Molecular Sciences, 2021)
“And” between values parts separate entries of the source, which are not always exact repeats. Equal entries are not always repeated. Where two headings read alike, the source gives them in different places.

How the values were obtained:
[1] = test system: SARS-CoV-2; test: SARS-CoV-2 infection assay, viral RNA in culture supernatant by real-time RT-PCR; format: cell-based, SARS-CoV-2 Wk-521 strain; conditions: for IC90: Severe acute respiratory syndrome coronavirus 2, read-out: IC90 (90% maximal inhibitory concentration); for IC90 / IC50: viral RNA in culture supernatant, VeroE6/TMPRSS2 cells; for IC50: Severe acute respiratory syndrome coronavirus 2, read-out: IC50 (50% maximal inhibitory concentration); for effect on viral RNA (in words) / reduction of the production of viral RNA as compared to control: concentrations up to 30 μM; for reduction of the production of viral RNA as compared to control: natural oxysterols; for effect of pathway inhibitors on viral RNA (in words) / reduction of viral replication: 10 μM; for effect on viral RNA level (in words): semi-synthetic oxysterols, up to 15 μM; for reduction of viral RNA production: 15 μM
[2] = in vitro; conditions: African green monkey
[3] = test system: SARS-CoV-2; test: Virus-induced cytopathic effect (CPE) viewed under a microscope; format: cell-based, SARS-CoV-2 Wk-521 strain; conditions: 48 h post-inoculation; 10 μM RDV, 30 μM cholesterol, 30 μM 7-KC, 10 μM Oxy133, 10 μM Oxy210
[4] = test system: SARS-CoV-2; test: Viral N protein by indirect immunofluorescence; format: cell-based, SARS-CoV-2 Wk-521 strain; conditions: 10 μM RDV, 30 μM cholesterol, 30 μM 7-KC, 10 μM Oxy133, 10 μM Oxy210
[5] = test system: VeroE6/TMPRSS2 cells; test: Cell viability by MTT assay; conditions: up to 15 μM
[6] = test system: SARS-CoV-2; test: Time of addition assay (whole life cycle, entry, post-entry); format: cell-based, SARS-CoV-2 Wk-521 strain; conditions: 10 μM Oxy210, 10 μM Oxy133; for viral RNA, compound present post-entry (in words): 15 μM RDV, added 2 h post-inoculation for 21 h
[7] = test system: hepatitis C virus (HCV); test: HCV replication assay, luciferase in LucNeo#2 replicon cells; format: cell-based, HCV NN strain (genotype-1b); conditions: 10 μM Oxy210, 1 μM sofosbuvir, 48 h
Experimental: N, nucleus; M, mitochondria; *, double-membrane vesicle.
HCV replication activity was measured using LucNeo#2 cells, carrying a subgenomic replicon RNA for an HCV NN strain (genotype-1b) and the luciferase gene driven by the HCV replication. LucNeo#2 cells were treated with the compounds indicated in Figure 3C for 48 h, and the luciferase activity was measured with Luciferase Assay System kit (Promega, Madison, WI, USA).

[8] = Pharmacokinetics in mice, single oral gavage dose; format: in vivo, balb/c mice; conditions: single oral dose 200 mg/kg; for Cmax: 200 mg/kg, read-out: Cmax (peak plasma concentration)
[9] = test system: TGFβ signaling; conditions: fibroblastic cells and tumor cells ref 16; cited from earlier work
[10] = test system: Hh signaling; conditions: fibroblastic cells and tumor cells ref 16; cited from earlier work
[11] = test system: SARS-CoV-2; test: Electron microscopy of double-membrane vesicle formation in infected cells; conditions: 10 μM, VeroE6/TMPRSS2 cells, MOI 1, 7 h
[12] = test system: TGFβ signaling; test: TGFβ activity, CTGF mRNA in NIH3T3 cells; format: cell-based; conditions: 10 μM, NIH3T3 cells stimulated with 20 ng/mL TGFβ
Experimental: (§1) Scale bar, 100 μm. (B) Viral N protein in the cells was detected by immunofluorescence analysis as described in Figure 1C. Scale bar, 50 μm. (C) Dose-response curves for viral RNA upon treatment with oxysterol derivatives as indicated. The secreted viral RNA in the culture supernatant at 24 h post-inoculation was quantified by real-time RT-PCR and plotted against compound concentration. The chemical structures of oxysterols are also shown above the graphs. (D) Viability of cells treated with the compounds was quantified using an MTT assay. (E,F) Inhibitory effects toward transforming growth factor β (TGFβ) and hedgehog (Hh) signaling. […] Cellular mRNAs were extracted to quantify a TGFβ-downstream gene, connective tissue growth factor (CTGF) (E), a Hh target gene, Gli1 (F), and Oaz1 for normalization of CTGF and Gli1 (E,F).
(§2) TGFβ activity was examined with NIH3T3 cells precultured with DMEM containing 0.1% bovine calf serum (BCS) overnight. NIH3T3 cells were pretreated with the compounds for 2 h and then stimulated with TGFβ1 (20 ng/mL) in the presence or absence of compounds. After 48 h, RNA was extracted from the cells and analyzed for quantifying the mRNA for a TGFβ target gene, connective tissue growth factor (CTGF), and Oaz1 for normalization. […] Cellular RNA was extracted and analyzed for the expression of a Hh target gene, Gli1, and normalized to Oaz1 expression.

[13] = test system: Hh signaling; test: Hedgehog activity, Gli1 mRNA in NIH3T3 cells; format: cell-based; conditions: 10 μM, CAPAN-1 conditioned medium containing Shh
Experimental: as §1, §2

[14] = Cell viability by MTT assay; conditions: African green monkey, VeroE6 cells stably overexpressing TMPRSS2

CC(C)CCC[C@@H](C)[C@H]1CC[C@H]2[C@@H]3CC=C4[C@@H](O)[C@@H](O)CC[C@]4(C)[C@H]3CC[C@]12C [4-beta-OHC, 4beta-hydroxycholesterol]
IC90 ([1]; 24 h post-inoculation): > 30 µM | IC50 ([1]; 24 h post-inoculation): > 30 µM | effect on viral RNA (in words) ([1]; 24 h post-inoculation): did not show apparent reductions in viral RNA | CC50 [2]: > 30 µM

CC(C)CCC[C@@H](C)[C@H]1CC[C@H]2[C@@H]3C(=O)C=C4C[C@@H](O)CC[C@]4(C)[C@H]3CC[C@]12C [7-KC, 7-ketocholesterol]
IC90 ([1]; 24 h post-inoculation): > 30 µM | IC50 ([1]; 24 h post-inoculation): 14.5 µM | reduction of the production of viral RNA as compared to control ([1]; 24 h post-inoculation): 80%–86% | effect on SARS-CoV-2-induced CPE (in words) [3]: reduced the SARS-CoV-2-induced CPE | effect on virus propagation / spread of infection, N protein (in words) [4]: reduced | CC50 [2]: > 30 µM

CC(C)CC[C@@H](O)[C@@H](C)[C@H]1CC[C@H]2[C@@H]3CC=C4C[C@@H](O)CC[C@]4(C)[C@H]3CC[C@]12C [22(R)-OHC, 22(R)-hydroxycholesterol]
IC90 ([1]; 24 h post-inoculation): > 30 µM | IC50 ([1]; 24 h post-inoculation): 13.2 µM | reduction of the production of viral RNA as compared to control ([1]; 24 h post-inoculation): 80%–86% | CC50 [2]: > 30 µM

CC(C)CC[C@H](O)[C@@H](C)[C@H]1CC[C@H]2[C@@H]3CC=C4C[C@@H](O)CC[C@]4(C)[C@H]3CC[C@]12C [22(S)-OHC, 22(S)-hydroxycholesterol]
IC90 ([1]; 24 h post-inoculation): > 30 µM | IC50 ([1]; 24 h post-inoculation): > 30 µM | effect on viral RNA (in words) ([1]; 24 h post-inoculation): did not show apparent reductions in viral RNA | CC50 [2]: > 30 µM

CC(C)[C@@H](O)CC[C@@H](C)[C@H]1CC[C@H]2[C@@H]3CC=C4C[C@@H](O)CC[C@]4(C)[C@H]3CC[C@]12C [24(S)-OHC, 24(S)-hydroxycholesterol]
IC90 ([1]; 24 h post-inoculation): > 30 µM | IC50 ([1]; 24 h post-inoculation): 1.3 µM | reduction of the production of viral RNA as compared to control ([1]; 24 h post-inoculation): 80%–86% | CC50 [2]: > 30 µM

C[C@@H](CO)CCC[C@@H](C)[C@H]1CC[C@H]2[C@@H]3CC=C4C[C@@H](O)CC[C@]4(C)[C@H]3CC[C@]12C [27-OHC, 27-hydroxycholesterol]
IC90 ([1]; 24 h post-inoculation): > 30 µM | IC50 ([1]; 24 h post-inoculation): 3.5 µM | reduction of the production of viral RNA as compared to control ([1]; 24 h post-inoculation): 80%–86% | CC50 [2]: > 30 µM

CC(C)CCC[C@@H](C)[C@H]1CC[C@H]2[C@@H]3CC=C4C[C@@H](O)CC[C@]4(C)[C@H]3CC[C@]12C [Cholesterol, reference compound]
IC90 ([1]; 24 h post-inoculation): > 30 µM | IC50 ([1]; 24 h post-inoculation): > 30 µM | effect on viral RNA (in words) ([1]; 24 h post-inoculation): did not show apparent reductions in viral RNA | effect on SARS-CoV-2-induced CPE (in words) [3]: but not cholesterol, reduced the SARS-CoV-2-induced CPE | effect on virus propagation / spread of infection, N protein (in words) [4]: but not cholesterol, reduced | CC50 [2]: > 30 µM

CS(=O)(=O)c1ccc(C(=O)Nc2ccc(Cl)c(-c3ccccn3)c2)c(Cl)c1 [GDC0449, reference compound]
effect of pathway inhibitors on viral RNA (in words) ([1]; 24 h post-inoculation): did not decrease the viral RNA levels

CCCCCC[C@@](C)(O)[C@H]1CC[C@H]2[C@@H]3C[C@H](O)[C@H]4C[C@@H](O)CC[C@]4(C)[C@H]3CC[C@@]21C [Oxy133]
IC90 ([1]; 24 h post-inoculation): > 15 µM | IC50 ([1]; 24 h post-inoculation): > 15 µM | effect on viral RNA level (in words) ([1]; 24 h post-inoculation): did not show antiviral activity up to 15 μM | CC50 [2]: > 15 µM

C[C@]12CC[C@H](O)C[C@@H]1CC[C@@H]1[C@@H]2CC[C@@]2(C)[C@H]1CC[C@@H]2[C@](C)(O)CCc1ccc(F)cc1 [Oxy186]
maximum reduction in viral RNA as compared to control ([1]; 12 μM, 24 h post-inoculation): 83% | IC90 ([1]; 24 h post-inoculation): > 15 µM | IC50 ([1]; 24 h post-inoculation): 7.4 µM | effect on viral RNA level (in words) ([1]; 24 h post-inoculation): reduced viral RNA level in a dose-dependent manner | CC50 [2]: > 15 µM | cytotoxicity / cell viability (in words) [5]: No significant cytotoxicity

C[C@]12CC[C@H]3[C@@H](CC=C4C[C@@H](O)CC[C@@]43C)[C@@H]1CC[C@@H]2[C@](C)(O)CCc1cccnc1 [Oxy210]
reduction of viral replication [1]: more than 90% | reduction of viral RNA production ([1]; 24 h post-inoculation): 99.4% and > 99% | IC90 ([1]; 24 h post-inoculation): 8.6 µM | IC50 ([1]; 24 h post-inoculation): 5.5 µM | effect on viral RNA level (in words) ([1]; 24 h post-inoculation): reduced viral RNA level in a dose-dependent manner | effect on SARS-CoV-2-induced CPE (in words) [3]: blocked | effect on virus propagation / spread of infection, N protein (in words) [4]: blocked | viral RNA, compound present in the whole life cycle (in words) ([6]; 24 h): clearly reduced viral RNA levels | viral RNA, compound present post-entry (in words) [6]: clearly reduced viral RNA levels | HCV replication, luciferase activity (in words) [7]: reduced the DMV-dependent RNA replication of HCV | Cmax ([8]; balb/c, mouse, in vivo, po, plasma): 8160 ng/mL and 19.4 µM | MRT ([8]; balb/c, mouse, in vivo, plasma): 3.5 h | Tmax ([8]; balb/c, mouse, in vivo, plasma): 1 h | AUC(0-inf) ([8]; balb/c, mouse, in vivo, plasma, read-out: AUC (AUCinf)): 29300 ng·h/mL | tolerability (in words) [8]: well tolerated | Cmax ([8]; plasma): ~19 µM | inhibition of TGFβ signaling (in words) [9]: inhibited | inhibition of Hh signaling (in words) [10]: inhibited | CC50 [2]: > 15 µM | cytotoxicity / cell viability (in words) [5]: No significant cytotoxicity | DMV formation in SARS-CoV-2-infected cells (in words) [11]: remarkably reduced the DMV formation

CC[C@@](O)(CCc1cccnc1)[C@H]1CC[C@H]2[C@@H]3CC[C@H]4C[C@@H](O)CC[C@]4(C)[C@H]3CC[C@]12C [Oxy232]
reduction of viral replication [1]: more than 90% | reduction of viral RNA production ([1]; 24 h post-inoculation): 99.9% and > 99% | IC90 ([1]; 24 h post-inoculation): 7.8 µM | IC50 ([1]; 24 h post-inoculation): 5.4 µM | effect on viral RNA level (in words) ([1]; 24 h post-inoculation): reduced viral RNA level in a dose-dependent manner | inhibition of TGFβ signaling (CTGF mRNA, in words) [12]: devoid of significant TGFβ inhibitory properties | inhibition of Hh signaling (Gli1 mRNA, in words) [13]: retains inhibitory activity toward Hh signaling | CC50 [2]: > 15 µM | cytotoxicity / cell viability (in words) [5]: slightly reduced cell viability when used at concentrations above 10 μM

CCC(CC)COC(=O)[C@H](C)N[P@](=O)(OC[C@H]1O[C@@](C#N)(c2ccc3c(N)ncnn23)[C@H](O)[C@@H]1O)Oc1ccccc1 [RDV, remdesivir, reference compound]
IC90 ([1]; 24 h post-inoculation): 2.5 µM | IC50 ([1]; 24 h post-inoculation): 1.5 µM | effect on SARS-CoV-2-induced CPE (in words) [3]: blocked the virus-induced CPE | effect on virus propagation / spread of infection, N protein (in words) [4]: blocked | viral RNA, compound present post-entry (in words) [6]: remarkable inhibition | CC50 at 24 h [14]: > 10 µM

NC(=O)c1ccc(-c2nc(-c3ccc4c(c3)OCO4)c(-c3ccccn3)[nH]2)cc1 [SB431542, reference compound]
effect of pathway inhibitors on viral RNA (in words) ([1]; 24 h post-inoculation): did not significantly inhibit the production of viral RNA

CC(C)OC(=O)[C@H](C)N[P@](=O)(OC[C@H]1O[C@@H](n2ccc(=O)[nH]c2=O)[C@](C)(F)[C@@H]1O)Oc1ccccc1 [sofosbuvir, reference compound]
HCV replication, luciferase activity (in words) [7]: positive control
